From patent US8435929B2, “1-aminocyclopropane carboxylic acid as a fruit thinner” (Valent BioSciences Corporation, priority 2009, dated 2013)

Key:
[1] = system: cotton cotyledons; assay: Cotton cotyledon bioassay, ethylene production; type: in vivo
From the text: For laboratory and growth chamber studies, deionized ultra-pure water was used in preparing solutions. Spray solutions were used as soon as possible after mixing. All spray solutions were amended with spray adjuvants as appropriate. A cotton cotyledon bioassay was used in the laboratory to study the effects of ACC or ethephon on induction of ethylene. Ten day old cotton plants with fully expanded cotyledons were used. Sprays were made to the upper (adaxial) surface of the leaves and the plants were then incubated in growth cabinets at the temperatures indicated. The cotyledons were excised at the times indicated and placed in sealed plastic vials. Headspace ethylene samples were measured on a Hewlett Packard 5890 gas chromatograph equipped with a packed Haysep T column (Alltech, Deerfield, Ill.) and a flame ionization detector.
Selected characteristics of ACC conversion to ethylene (i.e. dose response, time course, and temperature effect) were assessed to determine whether the relative consistence of ACC as a stone fruit and apple thinner was related to performance as an ethylene producer. In these bioassays, ACC solutions were applied to cotton cotyledons by a hand sprayer at the doses indicated and all spray solutions contained 0.05% (v/v) L-77.
In the first study, the effect of ACC dose sprays on ethylene produced by cotton cotyledons was determined. (Table 16). Cotton plants were sprayed with solution (ACC at 1, 10, 25, 50, 100, 250, 500, or 1000 ppm) and the cotyledons were excised 6 or 24 h after spraying and incubated in sealed tubes for 4 h. Ethylene levels were determined production was assayed.
In the second study, the time course of ethylene production following application of 500 mg/liter ACC or ethephon was determined (Table 17).
In the third study, the effect of temperature on ethylene production following ACC or ethephon application was determined (Table 18). The incubation of the plants following spraying and the incubation of the detached leaves were performed at 25 and 35° C.

[2] = system: Chardonnay grapes; assay: Thinning study on Chardonnay grapes (cluster weight, berry weight, berries per rachis, rachis length); type: in vivo, grape; conditions: application at bloom
From the text: Application of ACC on grapes during bloom reduced the cluster weight and number of berries/cm rachis (Table 15). However, ACC applications produce the highly undesirable effect of reducing the rachis length and cluster size. Similar results have been seen in trials on other grape varieties in Michigan, California, and Australia.

[3] = system: Garnet Beauty peaches; assay: Field thinning study, fruit set of Garnet Beauty peaches; type: in vivo, peach; conditions: application at petal fall
Procedure: (§1) A series of field studies on stone fruit thinning were performed over several seasons, on different varieties and in various locations to determine the consistency of the thinning effect of ACC. Even without the application of a chemical thinning agent, crop load (number of fruit remaining divided by the number of flowers or fruit prior to application) was variable. Chemical thinning of stone fruit is variable and dependent on many factors including variety and environment. An acceptable chemical thinning agent is one that gives a substantial and relatively consistent reduction in crop load for a given dose over a wide range of trials.
Follow up studies confirmed that higher rates (500 or 750 ppm ACC) produced a moderate to heavy crop load on Babygold #5 at two locations (Tables 8 and 9) and Garnet Beauty (Table 10).

[4] = system: Fuji apples; assay: Field thinning study, fruit set and fruit weight of Fuji apples; type: in vivo, apple
From the text: ACC was foliar applied at the 10 or 20 mm fruit stage. […] Application of 100 ppm ACC was particularly effective in removing fruit when applied at the 20 mm fruit stage.
Similarly, ACC applications at petal fall were not effective for thinning Fuji apples, but later applications (10 and 20 mm) were effective (Table 14).

[5] = system: Pink Lady apples; assay: Field thinning study, fruit set of Pink Lady apples; type: in vivo, apple; conditions: for Number of fruit per limb / Total number of fruit: 5 days after full bloom
[6] = system: Babygold #5 peaches; assay: Scaffold gummosis rating of Babygold #5 peaches; type: in vivo, peach; conditions: in vivo
From the text: Gummosis is a physiological stress response in which sap oozes from fractures in tree bark and often leads to tree decline. Use of 2-chloroethylphosphonic acid as a stone fruit thinning has been limited because it can stimulate severe incidences of gummosis of stone fruit.

[7] = system: Tatura 204 peaches; assay: Field thinning study, fruit set of Tatura 204 peaches; type: in vivo, peach; conditions: application at late shuck fall
Procedure: as §1
ACC was sprayed on Tatura 204 peach trees at late shuck fall (Table 3).

[8] = 100 ppm, application timing 10 mm
[9] = 100 ppm, application timing 20 mm
[10] = 300 ppm, application timing 10 mm
[11] = 300 ppm, application timing 20 mm
[12] = 1000 ppm, application timing 10 mm
[13] = 1000 ppm, application timing 20 mm

Gummosis (in words) [6]: little gummosis
Compound: NC1(C(=O)O)CC1 [ACC, 1-aminocyclopropane carboxylic acid]
Ethylene production ([1]; 10 ppm, 6 h after spraying, 25 C): 4.2 nl/g leaf weight/h incubated
Ethylene production ([1]; 10 ppm, 24 h after spraying, 25 C): 13.7 nl/g leaf weight/h incubated
Ethylene production ([1]; 25 ppm, 6 h after spraying, 25 C): 5.9 nl/g leaf weight/h incubated
Ethylene production ([1]; 25 ppm, 24 h after spraying, 25 C): 22.8 nl/g leaf weight/h incubated
Ethylene production ([1]; 50 ppm, 6 h after spraying, 25 C): 8.3 nl/g leaf weight/h incubated
Ethylene production ([1]; 50 ppm, 24 h after spraying, 25 C): 32.4 nl/g leaf weight/h incubated
Ethylene production ([1]; 100 ppm, 6 h after spraying, 25 C): 11.8 nl/g leaf weight/h incubated
Ethylene production ([1]; 100 ppm, 24 h after spraying, 25 C): 45.2 nl/g leaf weight/h incubated
Ethylene production ([1]; 200 ppm, 24 h after application, incubated at 25 C): 35.7 nl/g leaf weight/h incubated
Ethylene production ([1]; 200 ppm, 24 h after application, incubated at 35 C): 19.9 nl/g leaf weight/h incubated
Ethylene production ([1]; 250 ppm, 6 h after spraying, 25 C): 19.4 nl/g leaf weight/h incubated
Ethylene production ([1]; 250 ppm, 24 h after spraying, 25 C): 59.8 nl/g leaf weight/h incubated
Ethylene production ([1]; 500 ppm, 1 h following spray application, 25 C (time course)): 62.8 nl/g leaf weight/h incubated
Ethylene production ([1]; 500 ppm, 4 h following spray application, 25 C (time course)): 36.7 nl/g leaf weight/h incubated
Ethylene production ([1]; 500 ppm, 6 h after spraying, 25 C): 22.8 nl/g leaf weight/h incubated
Ethylene production ([1]; 500 ppm, 15 h following spray application, 25 C (time course)): 45.7 nl/g leaf weight/h incubated
Ethylene production ([1]; 500 ppm, 24 h after spraying, 25 C): 64.4 nl/g leaf weight/h incubated
Ethylene production ([1]; 500 ppm, 24 h following spray application, 25 C (time course)): 49.3 nl/g leaf weight/h incubated
Ethylene production ([1]; 500 ppm, 48 h following spray application, 25 C (time course)): 45.3 nl/g leaf weight/h incubated
Ethylene production ([1]; 1000 ppm, 6 h after spraying, 25 C): 25.1 nl/g leaf weight/h incubated
Ethylene production ([1]; 1000 ppm, 24 h after spraying, 25 C): 92.1 nl/g leaf weight/h incubated
Berries per cm rachis ([2]; 100 ppm): 3.1
Berry weight ([2]; 100 ppm): 1.2 g
Cluster weight ([2]; 100 ppm): 128 g
Rachis length (cm) ([2]; 100 ppm): 34 cm
Berries per cm rachis ([2]; 300 ppm): 2.9
Berry weight ([2]; 300 ppm): 1.2 g
Cluster weight ([2]; 300 ppm): 78 g
Rachis length (cm) ([2]; 300 ppm): 23 cm
Berries per cm rachis ([2]; 1000 ppm): 1.6
Berry weight ([2]; 1000 ppm): 1.1 g
Cluster weight ([2]; 1000 ppm): 24 g
Rachis length (cm) ([2]; 1000 ppm): 14 cm
Crop load (percent) of treated trees compared to the untreated control ([3]; 500 ppm): 82%
Percent fruit set ([3]; 500 ppm): 27%
Crop load (percent) of treated trees compared to the untreated control ([3]; 750 ppm): 58%
Percent fruit set ([3]; 750 ppm): 19%
Fruit weight [4, 8]: 95 g
Fruit/fruit cluster [4, 8]: 0.79
Fruit weight [4, 9]: 130 g
Fruit/fruit cluster [4, 9]: 0.54
Fruit weight [4, 10]: 117 g
Fruit/fruit cluster [4, 10]: 0.66
Fruit weight [4, 11]: 132 g
Fruit/fruit cluster [4, 11]: 0.41
Fruit per fruit cluster ([4]; 500 ppm, timing 10 mm (6-7 mm) (Table 14 trial)): 0.27
Fruit per fruit cluster ([4]; 500 ppm, timing 20 mm (Table 14 trial)): 0.33
Fruit per fruit cluster ([4]; 500 ppm, timing petal fall (Table 14 trial)): 0.49
Fruit weight [4, 12]: 157 g
Fruit/fruit cluster [4, 12]: 0.28
Fruit weight [4, 13]: 161 g
Fruit/fruit cluster [4, 13]: 0.03
Fruit per fruit cluster ([4]; 1000 ppm, timing 10 mm (6-7 mm) (Table 14 trial)): 0.10
Fruit per fruit cluster ([4]; 1000 ppm, timing petal fall (Table 14 trial)): 0.39
Thinning of Fuji apples (in words) ([4]; applications at petal fall): not effective
Number of fruit per limb ([5]; 100 ppm): 64
Total number of fruit ([5]; 100 ppm): 175
Number of fruit per limb ([5]; 300 ppm): 62
Total number of fruit ([5]; 300 ppm): 165
Number of fruit per limb ([5]; 500 ppm): 61
Total number of fruit ([5]; 500 ppm): 169
Number of fruit per limb ([5]; 1000 ppm): 58
Total number of fruit ([5]; 1000 ppm): 124
Crop load (in words) ([5]; highest rate tested (1000 ppm), early application (full bloom)): reduced crop load slightly
Crop load (percent) of treated trees compared to the untreated control ([7]; 100 ppm): 86%
Percent fruit set ([7]; 100 ppm): 65%
Crop load (percent) of treated trees compared to the untreated control ([7]; 300 ppm): 57%
Percent fruit set ([7]; 300 ppm): 43%
Crop load (percent) of treated trees compared to the untreated control ([7]; 500 ppm): 39%
Percent fruit set ([7]; 500 ppm): 30%
Crop load (percent) of treated trees compared to the untreated control ([7]; 1000 ppm): 36%
Percent fruit set ([7]; 1000 ppm): 27%
